Assays:
[1] = tested on: reprogrammed human exocrine pancreatic cells; experiment: RT-qPCR of cells reprogrammed (siARX) with or without zinc; assay type: cell-based; settings: ZnCl2 10 μM; partly attributed to increased PAX4 mRNA
Procedure: FIG. 18. RT-qPCR analysis of the three main endocrine hormones insulin (INS), glucagon (GCG) and somatostatin (SST) and the transcription factors PDX1, PAX4, MAFA, NEUROD, NGN3 and NKX6.1 in untreated (N/A) or cells reprogrammed (siARX) in the absence or presence of ZnCl2 (10 μM). Expression was normalised to glyceraldehyde 3-phosphate dehydrogenase. Data are representative of triplicate experiments and represented as mean+/−standard error of the mean.
Human exocrine fractions were thawed and plated on tissue culture 9 cm^2 dishes (Greiner, Stonehouse, UK) and cultured for two days in RPMI 1640 (Gibco, Life Technologies) supplemented with 10% foetal bovine serum (FBS), 10 mM HEPES, 1 mM sodium pyruvate (all from Gibco) and 75 μM β-mercaptoethanol (Sigma Aldrich). After 48 h, the cells were incubated for another 72 h in serum free medium (SFM) prepared with RPMI 1640, insulin-transferrin-selenium (Gibco) and 1% bovine serum albumin (Sigma), supplemented with 10 μM SB431542, 2 μM Y27632, 1 μM 5-Aza-2′deoxycytidine and 10 mM sodium butyrate (all from Sigma). On the next day the cells were incubated for 4 h with the adenoviruses encoding pancreatic transcription factors PDX1, MAFA, NGN3 and PAX4. On the following day the medium was changed for SFM supplemented with 1 nM betacellulin (R&D systems, Abingdon, UK), 10 nM exendin-4 and 10 mM nicotinamide (both from Sigma). […]

[2] = tested on: reprogrammed human exocrine pancreatic cells; experiment: C-peptide ELISA of cell extracts, reprogrammed (siARX) with or without ZnCl2; assay type: cell-based; settings: ZnCl2 10 μM; p<0.01 relative to siARX
Procedure: FIG. 19. C-peptide ELISA measurements of cell extracts from untreated cells (N/A) or cells reprogrammed (siARX) in the absence or presence of ZnCl2 (10 μM). C-peptide levels were expressed level to protein content and represent […] (n=3). ***p<0.001 relative to NA and **p<0.01 relative to siARX.
Human exocrine fractions were thawed and plated on tissue culture 9 cm^2 dishes (Greiner, Stonehouse, UK) and cultured for two days in RPMI 1640 (Gibco, Life Technologies) supplemented with 10% foetal bovine serum (FBS), 10 mM HEPES, 1 mM sodium pyruvate (all from Gibco) and 75 μM β-mercaptoethanol (Sigma Aldrich). After 48 h, the cells were incubated for another 72 h in serum free medium (SFM) prepared with RPMI 1640, insulin-transferrin-selenium (Gibco) and 1% bovine serum albumin (Sigma), supplemented with 10 μM SB431542, 2 μM Y27632, 1 μM 5-Aza-2′deoxycytidine and 10 mM sodium butyrate (all from Sigma). On the next day the cells were incubated for 4 h with the adenoviruses encoding pancreatic transcription factors PDX1, MAFA, NGN3 and PAX4. On the following day the medium was changed for SFM supplemented with 1 nM betacellulin (R&D systems, Abingdon, UK), 10 nM exendin-4 and 10 mM nicotinamide (both from Sigma). The medium was changed every two days for another 6 days before harvesting. […]

[3] = tested on: islet enriched pancreatic cells; experiment: Ad-KLF4 with and without Rho-kinase inhibitor Y27632, gene expression; assay type: cell-based, human; settings: Y27632 20 uM; up to 10 days post infection
Procedure: FIG. 11. […] A one-way ANOVA was performed with Dunnett post hoc test comparing treatment groups. […] B: Samples were fixed and permeabilised at day 6 for E-cadherin and cleaved caspase-3.
Total RNA was extracted using TRIzol® and treated with DNaseI (both Life Technologies) followed by cDNA synthesis using 1 μg of RNA per sample. qRT-PCR mixtures were prepared using SensiMix II probe kit (Bioline, London, UK) and TaqMan gene expression assays (Applied Biosystems, Paisley, UK) as per manufacturer's instructions. cDNA was amplified on Roche LightCycler 480® for 50 cycles. Samples were run in triplicate and normalised to glyceraldehyde 3-phosphate dehydrogenase (GAPDH) and/or 60S ribosomal protein L13a (RPL13a). Data was analysed using the 2^−ΔΔCT method (Brodsky et al., 1999). Statistical analysis was performed using GraphPad Prism software and the Student t test or one-way/two-way ANOVA, followed by the Dunnett post hoc test, were used as appropriate.
We next hypothesised that adjusting the cell culture environment to promote survival of newly formed epithelial cells would enhance redifferentiation.

Compound	insulin gene expression [1]	insulin (C-peptide) protein content [2]	gene expression, Ad-KLF4 with vs without Y27632 [3]
[Cl-].[Cl-].[Zn+2] [ZnCl2]	significant effect	stimulatory effect	–
C[C@@H](N)[C@H]1CC[C@H](C(=O)Nc2ccncc2)CC1 [Y27632]	–	–	no significant difference

Source: patent publication US20170175081A1, “Methods of Obtaining Islet Cells” (The University Court of the University of Aberdeen, priority 2014, published 2017)
